Earlier results as cited in patent US9987253B2, “Cannabinoid receptor antagonists/inverse agonists useful for treating metabolic disorders, including obesity and diabetes” (Jenrin Discovery, priority 2012, dated 2018).

Details: type 2 diabetes patients not treated with other anti-diabetic medications, six months, baseline 7.9

For `Cc1c(C(=O)NN2CCCCC2)nn(-c2ccc(Cl)cc2Cl)c1-c1ccc(Cl)cc1` [rimonabant], the HbA1c levels lowered is given as 0.8%.
